From patent US20180221306A1, “PHARMACEUTICAL COMPOSITIONS OF 5-HYDROXY-2-METHYLNAPHTHALENE-1,4-DIONE” (PellFiCure Pharmaceuticals, Inc., priority 2016, published 2018)
Like-named read-outs stand apart in the source and are kept apart here. Marks after values point to notes of the source that are not given here.

Tests used:
[1] = Water uptake of Compound I (Karl Fischer coulometric analysis); assay type: physicochemical
Method: For the purposes of establishing material handling practices, Compound I was evaluated for water uptake in various controlled conditions. Compound I was exposed to 25° C./60% relative humidity and 40° C./75% relative humidity for up to one day. Approximately 200 mg of Compound I was accurately weighed into separate glass vials and placed uncapped in stability chambers. At various time points, the vials were removed, stoppered and crimped, and the water content for Compound I powder was determined by standard Karl Fischer coulometric analysis.

Sprague Dawley rats = experiment: 7-day dose range-finding study; assay type: in vivo, rat
Method: A single-dose maximum tolerated dose (MTD) phase A study and a 7-day dose range-finding (DRF) phase B study were conducted in Sprague Dawley rats by MPI Research, Inc. (Mattawan, Mich.). A total of 62 males and 62 females rats were assigned to the study, which was performed in accordance with all current regulations. Animals were housed in standard conditions and had ad libitum access to food and water. Healthy animals of each sex were randomized into treatment groups using a standard, by weight, measured value randomization procedure. Compound I was administered by oral gavage, once at each dose level in Phase A (acute), or once daily for 7 consecutive days in Phase B. Oral gavage was chosen because the oral route is the intended route of administration in humans. Animals were observed twice daily for morbidity and mortality and were euthanatized for humane reasons where appropriate. An initial starting dose of 50 mg/kg was used for Phase A. Subsequent doses were increased or decreased based on the response to the preceding dose. […] The dose levels used in Phase B were based on the MTD identified in Phase A.
Daily doses of 0 (vehicle), 10, 30 and 100 mg/kg were then administered to Sprague Dawley rats by oral gavage for seven days for the dose-range finding study. […] Adverse events included decreased body weight or decreased body weight gain, decreased food consumption, adverse effects on various pathological parameters and Compound I-related macroscopic and microscopic abnormalities in multiple organs. […] The toxicity profile of Compound I is encouraging considering that the drug is effective in rodents at much lower doses. This toxicity-to-effectiveness dose ratio provides, potentially, a wide therapeutic window.

PTEN-CaP2/H2B-GFP tumors = experiment: IVM chamber model of castration resistant prostate cancer (CRPC), tumor size; assay type: in vivo, mouse
Text: Mouse prostate cancer cells PTEN-CaP2 were initially derived from the PTEN-P2 cell line and are homozygous for PTEN deletion. Complete ablation of PTEN results in intrinsic androgen-independence in the PTEN-null model. Although PTEN-CaP2 tumors express AR, they are resistant to castration in the absence of prior exposure to ADT.

[2] = 5 mg/g
rat = conditions: suspension in 0.5% of gum acacia in water or in propylene glycol, oral; cited from earlier work
mice = conditions: over a period of 14 days; cited from earlier work
[3] = Forced degradation: solution stability in aqueous media (HPLC)

SMILES: CC1=CC(=O)c2c(O)cccc2C1=O [Compound I, 5-hydroxy-2-methylnaphthalene-1,4-dione]
- Water content ([1]; 25° C./60% RH, 0 hours): 0.023%
- Water content ([1]; 25° C./60% RH, 5 hours): 0.026%
- Water content ([1]; 25° C./60% RH, 24 hours): 0.029%
- Water content of Compound I powder (in words) ([1]; 25° C./60% and 40° C./75% relative humidity, up to one day): anhydrous
- Water content ([1]; 40° C./75% RH, 0 hours): 0.023%
- Water content ([1]; 40° C./75% RH, 5 hours): 0.027%
- Water content ([1]; 40° C./75% RH, 24 hours): 0.031%
- Sensitivity to water uptake ([1]; at up to 75% relative humidity): not sensitive to water uptake
- Toxicity observed in rats (Sprague Dawley rats; 10 mg/kg/day): Very little toxicity
- Compound I-related effects (Sprague Dawley rats; 10 mg/kg/day low-dose level): limited to minimal changes noted in the teeth of one male
- Microscopic findings (Sprague Dawley rats; 30 mg/kg/day, both sexes): Minimal to mild non-adverse microscopic abnormalities in various organs
- Clinical chemistry findings (Sprague Dawley rats; 30 mg/kg/day, oral gavage, seven days): minimal increases in mean serum total bilirubin concentration and alkaline phosphatase activity
- Morbidity/mortality (Sprague Dawley rats; 100 mg/kg/day, beginning on day 3, early termination of all animals on Day 5): Morbidity/mortality occurred both in male and female rats
- Tumor size relative to initial size (PTEN-CaP2/H2B-GFP tumors; combination of Compound I and castration): 157%
- Tumor size relative to initial size (PTEN-CaP2/H2B-GFP tumors; oral formulation of Compound I alone (680% castrated, 656% untreated)): 293%
- Effectiveness of combination with castration vs Compound I alone (PTEN-CaP2/H2B-GFP tumors; p=0.048): twice as effective
- Solution Stability in Aqueous Media, % Potency ([2]; 0 week): 92.86%
- Solution Stability in Aqueous Media, % Potency ([2]; 0 week, pH 1): 99.62%
- Solution Stability in Aqueous Media, % Potency ([2]; 0 week, pH 2): 98.23%
- Solution Stability in Aqueous Media, % Potency ([2]; 0 week, pH 3): 96.53%
- Solution Stability in Aqueous Media, % Potency ([2]; 0 week, pH 4): 96.76%
- Solution Stability in Aqueous Media, % Potency ([2]; 0 week, pH 5): 97.34%
- Solution Stability in Aqueous Media, % Potency ([2]; 0 week, pH 6): 94.27%
- Solution Stability in Aqueous Media, % Potency ([2]; 0 week, pH 7): 87.84%
- Solution Stability in Aqueous Media, % Potency ([2]; 0 week, pH 8): 78.28%
- Solution Stability in Aqueous Media, % Potency ([2]; 0 week, pH 9): 85.90%
- Solution Stability in Aqueous Media, % Potency ([2]; 0 week, pH 10): 86.55%
- Solution Stability in Aqueous Media, % Potency ([2]; 1 week, pH 7): <10%
- Solution Stability in Aqueous Media, % Potency ([2]; 1 week, pH 8): <10%
- Solution Stability in Aqueous Media, % Potency ([2]; 2 week, pH 7): <10^‡ %
- Solution Stability in Aqueous Media, % Potency ([2]; 2 week, pH 8): <10^‡ %
- Solution Stability in Aqueous Media, % Potency ([2]; 2 week, pH 9): <10^‡ %
- Solution Stability in Aqueous Media, % Potency ([2]; 2 week, pH 10): <10^‡ %
- Initial Compound I remaining in the solution ([2]; buffer, 168 h, pH 7): less than 10%
- Stability of formulations of Compound I in PEG (5 mg/g): 50%
- Stability of the formulation in Carrier A (sesame oil), Potency as Amount (3 day, 4.6 mg/mL): 4200 µg/mL
- LD50 (rat): 65 mg/kg
- LD50 (mice): 8 mg/kg
- Solution Stability in Aqueous Media, Purity ([3]; pH 1, 50% DMSO, 25° C./60% RH, t = 0): 99.32 % Area
- Solution Stability in Aqueous Media, Purity ([3]; pH 1, 50% DMSO, 25° C./60% RH, t = 1 week): 98.83 % Area
- Solution Stability in Aqueous Media, Purity ([3]; pH 1, 50% DMSO, 25° C./60% RH, t = 2 week): 98.73 % Area
- Solution Stability in Aqueous Media, Purity ([3]; pH 1, 50% DMSO, 40° C./75% RH, t = 1 week): 98.12 % Area
- Solution Stability in Aqueous Media, Purity ([3]; pH 1, 50% DMSO, 40° C./75% RH, t = 2 week): 95.79 % Area
- Solution Stability in Aqueous Media, Purity ([3]; pH 2, 50% DMSO, 25° C./60% RH, t = 0): 98.83 % Area
- Solution Stability in Aqueous Media, Purity ([3]; pH 2, 50% DMSO, 25° C./60% RH, t = 1 week): 98.48 % Area
- Solution Stability in Aqueous Media, Purity ([3]; pH 2, 50% DMSO, 25° C./60% RH, t = 2 week): 96.90 % Area
